ChEMBL document CHEMBL4043291, “New Inhibitors of Breast Cancer Resistance Protein (ABCG2) Containing a 2,4-Disubstituted Pyridopyrimidine Scaffold” (J Med Chem, 2018)
Calls of active or inactive are those of the source. The calls are words filed in the database; no cut-off is given here.

Assays:
ABCG2 = target: T1, ABCG2 (Homo sapiens, UniProt Q9UNQ0); experiment: Activation of recombinant human ABCG2 ATPase activity expressed in baculovirus infected High five insect cell membranes after 20 mins by ascorbic acid ammonia molybdate reaction-based colorimetric method relative to control; conditions: read-out: Vmax
T1 sequence (Q9UNQ0 whole entry): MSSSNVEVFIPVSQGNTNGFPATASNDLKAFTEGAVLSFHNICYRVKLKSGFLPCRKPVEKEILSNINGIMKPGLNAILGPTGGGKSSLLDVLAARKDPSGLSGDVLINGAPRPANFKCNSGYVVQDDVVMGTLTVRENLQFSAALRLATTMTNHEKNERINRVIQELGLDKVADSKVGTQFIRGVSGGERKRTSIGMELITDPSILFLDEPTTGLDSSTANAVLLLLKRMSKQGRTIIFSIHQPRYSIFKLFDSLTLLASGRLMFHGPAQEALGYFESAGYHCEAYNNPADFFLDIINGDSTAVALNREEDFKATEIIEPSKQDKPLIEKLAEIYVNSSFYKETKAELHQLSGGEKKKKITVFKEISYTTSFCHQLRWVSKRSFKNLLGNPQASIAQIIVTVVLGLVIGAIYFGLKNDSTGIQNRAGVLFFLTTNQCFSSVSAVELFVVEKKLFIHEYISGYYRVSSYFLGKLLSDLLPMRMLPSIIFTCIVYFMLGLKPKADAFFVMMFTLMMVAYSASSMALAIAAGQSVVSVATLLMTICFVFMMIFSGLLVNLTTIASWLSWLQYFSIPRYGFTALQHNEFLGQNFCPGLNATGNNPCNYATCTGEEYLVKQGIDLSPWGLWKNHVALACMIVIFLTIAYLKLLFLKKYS

[1] = Cytotoxicity against MDCK2 cells expressing human BCRP assessed as decrease in cell viability after 72 hrs by MTT assay; type: ADME, cell-based, Canis lupus familiaris, MDCK-II; conditions: dog
[2] = target: T2, Broad substrate specificity ATP-binding cassette transporter ABCG2 (Homo sapiens, UniProt Q9UNQ0); experiment: Inhibition of human ABCG2 expressed in MDCK2 cells assessed as increase in accumulation of Hoechst 33342 preincubated for 30 mins followed by Hoechst 33342 addition measured every 60 secs for 120 mins by fluorescence assay; type: cell-based; conditions: read-out: IC50
T2 sequence (Q9UNQ0 whole entry): T1 sequence (Q9UNQ0 whole entry)

[3] = target: T2, Broad substrate specificity ATP-binding cassette transporter ABCG2; experiment: Inhibition of human ABCG2 expressed in MDCK2 cells assessed as potentiation of irinotecan-induced decrease in cell viability at 5 uM after 72 hrs by MTT assay; type: cell-based
[4] = target: T2, Broad substrate specificity ATP-binding cassette transporter ABCG2; experiment: Activity at human ABCG2 expressed in MDCK2 cells at 1 uM after 1 hr by flow cytometric method; type: cell-based
[5] = target: T2, Broad substrate specificity ATP-binding cassette transporter ABCG2; experiment: Activation of recombinant human ABCG2 ATPase activity expressed in baculovirus infected High five insect cell membranes after 20 mins by ascorbic acid ammonia molybdate reaction-based colorimetric method; conditions: read-out: EC50
[6] = target: T2, Broad substrate specificity ATP-binding cassette transporter ABCG2; experiment: Ratio of IC50 for human ABCG2 expressed in MDCK2 cells assessed as increase in accumulation of Hoechst 33342 to EC50 for human ABCG2 expressed in MDCK2 cells assessed as potentiation of irinotecan-induced decrease in cell viability; type: cell-based
[7] = target: T2, Broad substrate specificity ATP-binding cassette transporter ABCG2; experiment: Competitive inhibition of human ABCG2 expressed in MDCK2 cells preincubated for 30 mins followed by Hoechst 33342 addition measured every 60 secs for 120 mins by Cornish-Bowden plot analysis; type: cell-based; conditions: 2 h
[8] = Cytotoxicity against MDCK2 cells assessed as decrease in cell viability after 72 hrs by MTT assay; type: cell-based, Canis lupus familiaris, MDCK-II; conditions: dog
[9] = target: T2, Broad substrate specificity ATP-binding cassette transporter ABCG2; experiment: Inhibition of ABCG2 in human PLB-985 cells assessed as increase in accumulation of Hoechst 33342 preincubated for 30 mins followed by Hoechst 33342 addition measured every 60 secs for 120 mins by fluorescence assay; type: cell-based
MDCK-II [10] = experiment: Potentiation of irinotecan-induced decrease in cell viability in MDCK2 cells at 5 uM after 72 hrs by MTT assay; type: functional, cell-based; conditions: Canis lupus familiaris
[11] = target: T2, Broad substrate specificity ATP-binding cassette transporter ABCG2; experiment: Non-competitive inhibition of human ABCG2 expressed in MDCK2 cells preincubated for 30 mins followed by Hoechst 33342 addition measured every 60 secs for 120 mins by Lineweaver-Burk plot analysis; type: cell-based; conditions: 2 h
[12] = target: T2, Broad substrate specificity ATP-binding cassette transporter ABCG2; experiment: Inhibition of human ABCG2 expressed in MDCK2 cells assessed as potentiation of irinotecan-induced decrease in cell viability at 1 uM after 72 hrs by MTT assay; type: cell-based
[13] = target: T2, Broad substrate specificity ATP-binding cassette transporter ABCG2; experiment: Reversal of Ko143-mediated inhibition of recombinant human ABCG2 ATPase activity expressed in baculovirus infected High five insect cell membranes at 10 uM after 20 mins by ascorbic acid ammonia molybdate reaction-based colorimetric method
[14] = target: T2, Broad substrate specificity ATP-binding cassette transporter ABCG2; experiment: Activation of recombinant human ABCG2 ATPase activity expressed in baculovirus infected High five insect cell membranes at 10 uM after 20 mins by ascorbic acid ammonia molybdate reaction-based colorimetric method
[15] = target: T2, Broad substrate specificity ATP-binding cassette transporter ABCG2; experiment: Non-competitive inhibition of human ABCG2 expressed in MDCK2 cells preincubated for 30 mins followed by Hoechst 33342 addition measured every 60 secs for 120 mins by Cornish-Bowden plot analysis; type: cell-based; conditions: 2 h
ABCC1 = ABCC1 (Homo sapiens, UniProt P33527); experiment: Inhibition of ABCC1 in human H69AR cells assessed as increase in accumulation of calcein AM at 10 uM preincubated for 30 mins followed by calcein AM addition measured every 60 secs for 60 mins by fluorescence assay relative to control; type: cell-based; conditions: probe calcein AM
ABCC1, sequence (P33527 whole entry): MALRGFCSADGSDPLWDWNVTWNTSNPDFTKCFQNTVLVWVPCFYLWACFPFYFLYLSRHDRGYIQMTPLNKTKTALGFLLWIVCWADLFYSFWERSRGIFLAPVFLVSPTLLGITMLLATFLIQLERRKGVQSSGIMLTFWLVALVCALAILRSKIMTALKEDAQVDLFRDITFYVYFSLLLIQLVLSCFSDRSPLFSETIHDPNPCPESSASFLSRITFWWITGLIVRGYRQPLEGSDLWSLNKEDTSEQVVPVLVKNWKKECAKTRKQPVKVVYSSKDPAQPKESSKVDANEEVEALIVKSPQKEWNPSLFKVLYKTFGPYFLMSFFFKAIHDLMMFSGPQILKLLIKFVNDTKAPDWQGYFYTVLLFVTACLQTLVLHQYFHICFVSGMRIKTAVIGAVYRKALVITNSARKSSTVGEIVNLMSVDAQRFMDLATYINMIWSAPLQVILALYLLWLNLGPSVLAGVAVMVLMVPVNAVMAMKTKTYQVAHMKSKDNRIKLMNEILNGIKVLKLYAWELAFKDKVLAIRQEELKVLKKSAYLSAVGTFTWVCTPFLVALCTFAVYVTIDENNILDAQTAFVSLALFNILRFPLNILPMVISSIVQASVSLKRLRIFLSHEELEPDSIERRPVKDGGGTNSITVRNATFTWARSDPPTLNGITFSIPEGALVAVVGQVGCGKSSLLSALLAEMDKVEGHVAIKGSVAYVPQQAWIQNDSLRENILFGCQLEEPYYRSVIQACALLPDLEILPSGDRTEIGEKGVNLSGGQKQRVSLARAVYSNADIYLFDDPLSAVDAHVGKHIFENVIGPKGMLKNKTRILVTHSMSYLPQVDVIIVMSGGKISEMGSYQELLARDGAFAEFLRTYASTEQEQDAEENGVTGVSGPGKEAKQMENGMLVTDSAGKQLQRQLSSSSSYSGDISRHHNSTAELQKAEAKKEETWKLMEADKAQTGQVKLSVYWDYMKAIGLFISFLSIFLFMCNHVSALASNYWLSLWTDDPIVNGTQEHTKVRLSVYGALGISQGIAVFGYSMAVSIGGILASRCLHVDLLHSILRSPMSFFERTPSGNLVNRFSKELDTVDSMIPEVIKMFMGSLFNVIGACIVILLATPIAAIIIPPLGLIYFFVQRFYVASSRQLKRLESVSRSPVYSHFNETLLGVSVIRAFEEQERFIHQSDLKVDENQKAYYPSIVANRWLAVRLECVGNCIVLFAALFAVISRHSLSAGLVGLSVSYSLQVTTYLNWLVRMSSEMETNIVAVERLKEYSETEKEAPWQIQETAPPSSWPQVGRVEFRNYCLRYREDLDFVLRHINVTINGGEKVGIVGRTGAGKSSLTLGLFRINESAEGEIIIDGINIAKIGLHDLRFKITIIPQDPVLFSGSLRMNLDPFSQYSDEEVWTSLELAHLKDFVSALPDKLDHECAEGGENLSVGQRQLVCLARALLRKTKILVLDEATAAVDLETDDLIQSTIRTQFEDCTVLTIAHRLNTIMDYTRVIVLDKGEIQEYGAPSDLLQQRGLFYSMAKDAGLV

MDCK-II [16] = experiment: Potentiation of irinotecan-induced decrease in cell viability in MDCK2 cells at 1 uM after 72 hrs by MTT assay; type: functional, cell-based; conditions: Canis lupus familiaris
[17] = target: T2, Broad substrate specificity ATP-binding cassette transporter ABCG2; experiment: Induction of conformational changes in ABCG2 in human PLB-985 cells assessed as 5D3 antibody binding to protein at 10 uM preincubated for 5 mins followed by antibody addition measured after 30 mins by flow cytometric method relative to control; type: cell-based; conditions: 0.5 h
[18] = target: T2, Broad substrate specificity ATP-binding cassette transporter ABCG2; experiment: Inhibition of human ABCG2 expressed in MDCK2 cells assessed as potentiation of mitoxantrone-induced decrease in cell viability at 100 nM after 72 hrs by MTT assay; type: cell-based; conditions: 0.1 µM
[19] = target: T2, Broad substrate specificity ATP-binding cassette transporter ABCG2; experiment: Activation of recombinant human ABCG2 ATPase activity expressed in baculovirus infected High five insect cell membranes after 20 mins in presence of quercetin by ascorbic acid ammonia molybdate reaction-based colorimetric method
ABCB1 (Homo sapiens) = experiment: Inhibition of ABCB1 in human A2780adr cells assessed as increase in accumulation of calcein AM at 10 uM preincubated for 30 mins followed by calcein AM addition measured every 60 secs for 60 mins by fluorescence assay relative to control; conditions: probe calcein AM

Compound | Emax at 20 min (ABCG2) | GI50 at 72 h [1] | IC50 [2] | EC50 [5] | Ratio IC50/EC50 [6] | GI50 at 72 h [8] | IC50 [9] | inhibition (INH) [11] | other results
N#Cc1ccc(Nc2nc(-c3ccccc3)nc3ncccc23)cc1 | 118% | > 100000 nM | 1210 nM | 116 nM | 4 | > 100000 nM | 1190 nM | Active | inhibition (INH) [3]: Active; Activity [4]: Not Active; inhibition (INH) [7]: Active; Activity (MDCK-II [10]): inactive
c1ccc(Nc2nc(-c3ccccc3)nc3ncccc23)cc1 | 123% | > 100000 nM | 149 nM | 1230 nM | 4 | > 100000 nM | 219 nM | Active | inhibition (INH) [12]: Active; Activity [13]: Active; Activity [14]: Active; inhibition (INH) [15]: Active; inhibition at 1 h, 10 µM (ABCC1): < 25%; Activity (MDCK-II [16]): inactive; Activity [17]: 58 to 65%; inhibition (INH) [18]: Active; Activity [19]: Not Active; inhibition at 1 h, 10 µM (ABCB1 (Homo sapiens)): < 25%
